These results are taken from patent publication US6172087A, “N-oxide of heterocyclic ester, amide, thioester, or ketone hair growth compositions and uses” (GPI NIL Holding, Inc., priority 1998, dated 2001).

Entries after “also recorded” stand apart in the source; their conditions may differ.

For assay [1] the following is noted: cited from earlier work.
In the next assay the test system is C57 black 6 mice. Put plainly: In Vivo Hair Generation Test With C57 Black 6 Mice, Experiment A. To be noted: 30 μM, topical, every 48 hours (3 applications), after 6 weeks. From the text: Care was taken not to nick or cause abrasion to the underlaying dermal layers. The animals were in anagen growth phase, as indicated by the pinkish color of the skin. […] Hair growth was quantitated by the percent of shaved area covered by new hair growth during this time period.

For `C=CC[C@@H]1/C=C(\C)C[C@H](C)C[C@H](OC)[C@H]2O[C@@](O)(C(=O)C(=O)N3CCCC[C@H]3C(=O)O[C@H](/C(C)=C/[C@@H]3CC[C@@H](O)[C@H](OC)C3)[C@H](C)[C@@H](O)CC1=O)[C@H](C)C[C@@H]2OC` [FK506], in assay [1], the “hair growth on topical, but not oral, application (in words)” value is “stimulates hair growth in a dose-dependent manner”.

As to `CCC(C)(C)C(=O)C(=O)N1CCC[C@H]1C(=O)OCCCc1cccnc1` [GPI 1046, 3-(3-pyridyl)-1-propyl(2s)-1-(3,3-dimethyl-1,2-dioxopentyl)-2-pyrrolidinecarboxylate], in the assay on C57 black 6 mice, the “hair regrowth in the shaved area (in words)” value was “essentially complete hair regrowth and their shaved areas were indistinguishable from unshaven C57 black 6 mice; also recorded: essentially, complete hair regrowth in the shaved area”.
